# Where two headings read alike, the source gives them in different places.
# Experiments:
# [1] = tested on: uric acid crystals in rat kidneys; conditions: for kidney weight / serum uric acid: day 5; for kidneys observed with obvious radial white lines (uric acid crystal deposition): 5 days
# Protocol: Except for the normal control group, the other groups were intraperitoneally injected with 300 mg/kg of potassium oteronate and intragastrically perfused with 300 mg/kg of hypoxanthine, and the volume of injection and intragastrical perfusion were 5 ml/kg respectively. The normal control group was administered with the same volume of 0.5% CMC-Na, and the model was established at 0.5 h after the second administration every day with once a day and for five consecutive days. […] The normal and model control groups were administered with the same volume of 0.5% CMC-Na by gastric perfusion.
# On the 4th day of the test, the rats were fasted overnight (about 16 h). On the 5th day of the test, the rats were weighed and anesthetized by intraperitoneal injection of 60 mg/kg sodium pentobarbital, with an injection volume of 2 ml/kg. About 0.7 mL of blood was collected from the orbit and then the kidney was removed. The whole blood was centrifuged at 6000 r/min for 10 min, the supernatant was taken and stored at -20° C. for keeping the blood uric acid content to be determined. The kidney was weighed, opened to observe the deposition of uric acid crystals in white radial pattern, and stored at -70° C. for future use.
# Uric acid content determination: After the serum was rapidly remelted, the uric acid content was determined according to the method specified in the instructions for use, and the serum uric acid content was calculated.
# Data processing: The data were expressed as mean ± standard deviation (x ± SD) and analyzed with SPSS 25.0 software. One-Way ANOVA was used for comparison among multiple groups. LSD test was used for homogeneity of variance, where P <0.05 was considered as statistically significant.
# [2] = 36.5° C., 60 rpm
# Protocol: Experimental materials were as follows: a. uric acid (crystal); b.
# Background: An assumption was set that a 60 kg hyperuricemic patient with a total blood volume of 4500 ml has 7 mg of uric acid dissolved in 100 ml of blood and 3 mg of uric acid crystals in 100 ml of blood.
# [3] = 50 mg sodium urate in 35 ml of 0.3 mol/L solution pH 7.4±0.5, 36.5° C., 4 hours, 60 rpm
compound,measurement,setting,value
"Cl.NC(CO)(CO)CO [Changsheng No. 1, trimethylol aminomethane hydrochloride]","uric acid crystal deposition in the kidney, dose dependence","[1]; 0.85-3.40 g/kg, solution at pH 7.4",dose-dependently reduced
same,kidney weight,[1]; 0.85 g/kg,2.636 ± 0.491 g
same,serum uric acid,[1]; 0.85 g/kg,976.91 ± 172.29 µmol/L
same,kidneys observed with obvious radial white lines (uric acid crystal deposition),[1]; 0.85 g/kg/day by gavage,11/14
same,kidney weight,[1]; 1.70 g/kg,2.507 ± 0.461 g
same,serum uric acid,[1]; 1.70 g/kg,838.42 ± 3.19 µmol/L
same,kidneys observed with obvious radial white lines (uric acid crystal deposition),[1]; 1.7 g/kg/day by gavage,5/14
same,kidney weight,[1]; 3.40 g/kg,2.207 ± 0.114 g
same,serum uric acid,[1]; 3.40 g/kg,965.17 ± 215.90 µmol/L
same,kidneys observed with obvious radial white lines (uric acid crystal deposition),"[1]; 3.40 g/kg/day by gavage, hydrochloride",no difference from that of the normal control group
same,kidneys observed with obvious radial white lines (uric acid crystal deposition),"[1]; 3.40 g/kg/day by gavage, listed as Changsheng No.1, hydrochloride",none of 14
same,blood uric acid content compared with the model control group,"[1]; all dose groups (0.85, 1.70, 3.40 g/kg)",effect of improvement
same,Dissolving time,"[2]; test 1: 0.3 mol/L, 0.5 ml/kg (30 ml), 7 mg dissolved + 3 mg crystalized uric acid per 100 ml",4 h
same,Dissolving time,"[2]; test 2: 0.3 mol/L, 1.0 ml/kg (60 ml), 7 mg dissolved + 3 mg crystalized uric acid per 100 ml",2 h
same,Dissolving time,"[2]; test 3: 0.3 mol/L, 1.5 ml/kg (90 ml), 7 mg dissolved + 3 mg crystalized uric acid per 100 ml",2 h
same,Dissolving time,"[2]; test 4: 0.3 mol/L, 2.0 ml/kg (120 ml), 7 mg dissolved + 3 mg crystalized uric acid per 100 ml",0.5 h
same,Dissolving time,"[2]; test 5: 0.3 mol/L, 3.0 ml/kg (180 ml), 7 mg dissolved + 3 mg crystalized uric acid per 100 ml",0.5 h
same,Dissolving time,"[2]; test 6: 0.6 mol/L, 0.5 ml/kg (30 ml), 7 mg dissolved + 8 mg crystalized uric acid per 100 ml",4 h
same,Dissolving time,"[2]; test 7: 0.6 mol/L, 1.0 ml/kg (60 ml), 7 mg dissolved + 8 mg crystalized uric acid per 100 ml",2 h
same,Dissolving time,"[2]; test 8: 0.6 mol/L, 1.5 ml/kg (90 ml), 7 mg dissolved + 8 mg crystalized uric acid per 100 ml",0.5 h
same,dissolution of sodium urate crystals,[3],dissolved completely
same,dissolution of uric acid in the solution,"21 mg uric acid in 100 ml of 8 mM (pH 7.4) solution, stirring 1 hour",completely dissolved
same,uric acid level at which the complex did not precipitate as crystals,"after treatment with the solution, extrapolated to blood",up to 1260 µmol/L
